The target in one data set is T1, GnRHR (Homo sapiens, UniProt P30968).
T1 construct: host or cells: CHO-K1 (CHO-K1/GnRHR/Ga15)
T1 sequence (P30968 1-328): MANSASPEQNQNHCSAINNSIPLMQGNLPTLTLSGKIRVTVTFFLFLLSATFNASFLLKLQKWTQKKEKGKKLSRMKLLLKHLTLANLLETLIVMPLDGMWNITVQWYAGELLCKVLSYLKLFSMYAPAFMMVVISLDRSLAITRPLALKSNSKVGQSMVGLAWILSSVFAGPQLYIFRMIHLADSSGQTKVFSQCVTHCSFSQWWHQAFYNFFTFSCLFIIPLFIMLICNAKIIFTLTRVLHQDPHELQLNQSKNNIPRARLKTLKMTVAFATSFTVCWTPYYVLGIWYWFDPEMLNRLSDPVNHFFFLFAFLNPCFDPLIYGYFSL
As to the kind of experiment: Calcium assay in CHO-K1 cells (Genscript), FLIPR. It is filed as cell-based. The conditions noted are these: CHO-K1/GnRHR/Ga15 cells, relative to agonist control, read-out: GNRHR Stimulation at 1 μM. How it is done:
Test article sample solutions were dissolved in HBSS buffer (with 20 mM HEPES buffer, pH 7.4) to form the 5× working solution. FLIPR® Calcium 4 assay kit from Molecular devices (R8141) was used as required. In brief, CHO-K1 cells expressing GnRHR (CHO-K1/GnRHR/Ga15, Genscript accession NM_000406) were respectively cultured in the 10-cm dishes and maintained at 37° C./5% CO2. CHO-K1 cells expressing GNRHR were respectively seeded in a 384-well black-wall, clear-bottom plate at a density of 15,000 cells per well in 20 μl of growth medium about 18 hours prior to the day of experiment and maintained at 37° C./5% CO2. Then, 20 μl of dye loading solution was added into the wells and the plates were subsequently placed into a 37° C. incubator for 60 minutes, followed by a 15 minutes' incubation at room temperature. At last, 10 μl of compounds or control agonist were added into respective wells of the assay plate during reading in FLIPR. The plate containing 5× compound and control agonist solution was placed in FLIPR. Solutions were added into the cell plate automatically at the 20 seconds and the fluorescence signal was monitored for an additional 100 seconds (21 sec to 120 sec.). Data were recorded by ScreenWorks (version 3.1) as FMD files with FLIPR and stored on the GenScript computer network for off-line analysis. Data acquisition and analyses was performed using ScreenWorks (version 3.1) program and exported to Excel. The average value of the first 20 seconds' reading was calculated as the baseline and the relative fluorescent units (ΔRFU) intensity values were calculated by subtracting the average value of baseline from the maximum fluorescent units (21 s to 120 s).
The % Stimulation was calculated with the following equation: % Stimulation=(ΔRFUCompound−ΔRFUBackground)/(ΔRFUAgonist control−ΔRFUBackground)×100
Dose response curves were fitted with four-parameter-logistic-equation by the software GraphPad Prism 6.
Equation: four parameter logistic equation. Y=Bottom+(Top-Bottom)/(1+10^((Log EC50−X)×Hillslope))
X is the logarithm of concentration. Y is the response.

A short description of data set [1]: Stability in aqueous media (PBS pH 7.4). The arrangement: unit not given here. Particulars: phosphate buffer solution (PBS); PBS pH 7.4, 37° C., samples at T=0, 4, 24, 96 h; read-out: Stability grading (t1/2). Type of data set: physicochemical. The text has this: LC/MS data was collected for compound identity.
Data set [2] can be described thus: Solubility in PBS (LC/UV AUC trend). The conditions noted are these: PBS pH 7.4, 0.2 mg/ml; rating 1 (good) to 5 (poor).
For data set [3] the following is noted: pH 7.4.

Counter-ions that a name gives are not always drawn. Like-named read-outs stand apart in the source and are kept apart here. Non-standard residues stand in square brackets, D forms with d. Residues, ends and D or L forms follow the SMILES beside them. dHis(τ-Bn) = N[C@H](Cc1cn(Cc2ccccc2)cn1)C(=O)O; d2Nal = N[C@H](Cc1ccc2ccccc2c1)C(=O)O; pGlu = O=C1CC[C@@H](C(=O)O)N1

In the case of `N=C(N)NCCC[C@H](NC(=O)[C@H](Cc1c[nH]c2ccccc12)NC(=O)[C@@H](Cc1ccc2ccccc2c1)NC(=O)[C@H](Cc1c[nH]cn1)NC(=O)[C@H](CO)NC(=O)[C@H](Cc1c[nH]c2ccccc12)NC(=O)[C@H](Cc1c[nH]cn1)NC(=O)[C@@H]1CCC(=O)N1)C(=O)N1CCC[C@H]1C(=O)NCC(N)=O` [Compound 27, pGlu-His-Trp-Ser-His-D-Nal-Trp-Arg-Pro-Gly-amide] ([pGlu]HWSH[d2Nal]WRPG-NH2), the activation at 1 µM on GnRHR is 108%. For the same compound, in data set [1], the half-life at 0.2 mg/ml was above 96. The Solubility grading in data set [2] is listed as 1.

For the compound `NC(=O)CNC(=O)[C@@H]1CCCN1C(=O)[C@H](Cc1ccc(O)cc1)NC(=O)[C@H](Cc1c[nH]c2ccccc12)NC(=O)[C@@H](Cc1ccc2ccccc2c1)NC(=O)[C@H](Cc1ccc(O)cc1)NC(=O)[C@H](CO)NC(=O)[C@H](Cc1c[nH]c2ccccc12)NC(=O)[C@H](Cc1c[nH]cn1)NC(=O)[C@@H]1CCC(=O)N1` [Compound 30, pGlu-His-Trp-Ser-Tyr-D-Nal-Trp-Tyr-Pro-Gly-amide] ([pGlu]HWSY[d2Nal]WYPG-NH2), at GnRHR, the activation at 1 µM stood at 12%. For the same compound, the half-life at 0.2 mg/ml in data set [1] is below 96. This compound registered a Solubility grading in data set [2] of 1.

With `CCNC(=O)[C@@H]1CCCN1C(=O)[C@H](CCCNC(=N)N)NC(=O)[C@H](CC(C)C)NC(=O)[C@@H](CC(C)C)NC(=O)[C@H](Cc1c[nH]cn1)NC(=O)[C@H](CO)NC(=O)[C@H](Cc1c[nH]c2ccccc12)NC(=O)[C@H](Cc1c[nH]cn1)NC(=O)[C@@H]1CCC(=O)N1` [Compound 42, pGlu-His-Trp-Ser-His-D-Leu-Leu-Arg-Pro-NHEt] ([pGlu]HWSH[dL]LRP-NHEt), the activation at 1 µM on GnRHR worked out at 102%. In addition, in data set [1], the half-life at 0.2 mg/ml was above 96. The compound also had a Solubility grading in data set [2] of 1.

`CCNC(=O)[C@@H]1CCCN1C(=O)[C@H](CCCNC(=N)N)NC(=O)[C@H](Cc1c[nH]c2ccccc12)NC(=O)[C@@H](CC(C)C)NC(=O)[C@H](Cc1c[nH]cn1)NC(=O)[C@H](CO)NC(=O)[C@H](Cc1c[nH]c2ccccc12)NC(=O)[C@H](Cc1c[nH]cn1)NC(=O)[C@@H]1CCC(=O)N1` [Compound 47, pGlu-His-Trp-Ser-His-D-Leu-Trp-Arg-Pro-NHEt] ([pGlu]HWSH[dL]WRP-NHEt): the activation at 1 µM at GnRHR is 119%. Also, the half-life at 0.2 mg/ml in data set [1] is above 96. In data set [2], the Solubility grading was 1.

As to `CCNC(=O)[C@@H]1CCCN1C(=O)[C@H](Cc1ccc(O)cc1)NC(=O)[C@H](Cc1c[nH]c2ccccc12)NC(=O)[C@@H](CC(C)C)NC(=O)[C@H](Cc1c[nH]cn1)NC(=O)[C@H](CO)NC(=O)[C@H](Cc1c[nH]c2ccccc12)NC(=O)[C@H](Cc1c[nH]cn1)NC(=O)[C@@H]1CCC(=O)N1` [Compound 50, pGlu-His-Trp-Ser-His-D-Leu-Trp-Tyr-Pro-NHEt] ([pGlu]HWSH[dL]WYP-NHEt), the activation at 1 µM on GnRHR was determined as 105%. The half-life at 0.2 mg/ml in data set [1] is above 96. In data set [2], this compound came in with a Solubility grading of 1.

Consider `CCNC(=O)[C@@H]1CCCN1C(=O)[C@H](CCCNC(=N)N)NC(=O)[C@H](CC(C)C)NC(=O)[C@@H](Cc1cn(Cc2ccccc2)cn1)NC(=O)[C@H](Cc1c[nH]cn1)NC(=O)[C@H](CO)NC(=O)[C@H](Cc1c[nH]c2ccccc12)NC(=O)[C@H](Cc1c[nH]cn1)NC(=O)[C@@H]1CCC(=O)N1` [Compound 56, pGlu-His-Trp-Ser-His-D-Bhi-Leu-Arg-Pro-NHEt] ([pGlu]HWSH[dHis(τ-Bn)]LRP-NHEt), for which, on GnRHR, the activation at 1 µM came to 96%. Further, the half-life at 0.2 mg/ml in data set [1] is above 96. In data set [2], this compound returned a Solubility grading of 1.

For the compound `CCNC(=O)[C@@H]1CCCN1C(=O)[C@H](Cc1ccc(O)cc1)NC(=O)[C@H](Cc1c[nH]c2ccccc12)NC(=O)[C@@H](Cc1cn(Cc2ccccc2)cn1)NC(=O)[C@H](Cc1ccc(O)cc1)NC(=O)[C@H](CO)NC(=O)[C@H](Cc1c[nH]c2ccccc12)NC(=O)[C@H](Cc1c[nH]cn1)NC(=O)[C@@H]1CCC(=O)N1` [Compound 62, pGlu-His-Trp-Ser-Tyr-D-Bhi-Trp-Tyr-Pro-NHEt] ([pGlu]HWSY[dHis(τ-Bn)]WYP-NHEt), the activation at 1 µM on GnRHR is 77%. Besides, in data set [1], the half-life at 0.2 mg/ml was below 96. The compound also came in with a Solubility grading in data set [2] of 5.

As for `CCNC(=O)[C@@H]1CCCN1C(=O)[C@H](Cc1ccc(O)cc1)NC(=O)[C@H](Cc1c[nH]c2ccccc12)NC(=O)[C@@H](Cc1cn(Cc2ccccc2)cn1)NC(=O)[C@H](Cc1c[nH]cn1)NC(=O)[C@H](CO)NC(=O)[C@H](Cc1c[nH]c2ccccc12)NC(=O)[C@H](Cc1c[nH]cn1)NC(=O)[C@@H]1CCC(=O)N1` [Compound 63, pGlu-His-Trp-Ser-His-D-Bhi-Trp-Tyr-Pro-NHEt] ([pGlu]HWSH[dHis(τ-Bn)]WYP-NHEt), the activation at 1 µM on GnRHR is 77%. The half-life at 0.2 mg/ml in data set [1] was below 96. The Solubility grading in data set [2] came to 5.

As for `NC(=O)CNC(=O)[C@@H]1CCCN1C(=O)[C@H](Cc1ccc(O)cc1)NC(=O)[C@H](Cc1c[nH]c2ccccc12)NC(=O)[C@@H](Cc1c[nH]c2ccccc12)NC(=O)[C@H](Cc1ccc(O)cc1)NC(=O)[C@H](CO)NC(=O)[C@H](Cc1c[nH]c2ccccc12)NC(=O)[C@H](Cc1c[nH]cn1)NC(=O)[C@@H]1CCC(=O)N1` [Compound 64, pGlu-His-Trp-Ser-Tyr-D-Trp-Trp-Tyr-Pro-Gly-amide] ([pGlu]HWSY[dW]WYPG-NH2), at GnRHR, the activation at 1 µM was 50%. Moreover, in data set [1], the half-life at 0.2 mg/ml is below 96. This compound had a Solubility grading in data set [2] of 5.

With `N=C(N)NCCC[C@H](NC(=O)[C@H](Cc1c[nH]c2ccccc12)NC(=O)[C@@H](Cc1c[nH]c2ccccc12)NC(=O)[C@H](Cc1ccc(O)cc1)NC(=O)[C@H](CO)NC(=O)[C@H](Cc1c[nH]c2ccccc12)NC(=O)[C@H](Cc1c[nH]cn1)NC(=O)[C@@H]1CCC(=O)N1)C(=O)N1CCC[C@H]1C(=O)NCC(N)=O` [Compound 66, pGlu-His-Trp-Ser-Tyr-D-Trp-Trp-Arg-Pro-Gly-amide] ([pGlu]HWSY[dW]WRPG-NH2), the activation at 1 µM on GnRHR was determined as 83%. Also, in data set [1], the half-life at 0.2 mg/ml was above 96. In data set [2], this compound returned a Solubility grading of 5.

Consider `CCNC(=O)[C@@H]1CCCN1C(=O)[C@H](CCCNC(=N)N)NC(=O)[C@H](Cc1c[nH]c2ccccc12)NC(=O)[C@@H](Cc1cn(Cc2ccccc2)cn1)NC(=O)[C@H](Cc1ccc(O)cc1)NC(=O)[C@H](CO)NC(=O)[C@H](Cc1c[nH]c2ccccc12)NC(=O)[C@H](Cc1c[nH]cn1)NC(=O)[C@@H]1CCC(=O)N1` [Compound 67, pGlu-His-Trp-Ser-Tyr-D-Bhi-Trp-Arg-Pro-NHEt] ([pGlu]HWSY[dHis(τ-Bn)]WRP-NHEt), for which, at GnRHR, the activation at 1 µM was found to be 117%. Besides, the half-life at 0.2 mg/ml in data set [1] was below 96. The compound also had a Solubility grading in data set [2] of 1.

For `CC(C)C[C@H](NC(=O)[C@@H](Cc1c[nH]c2ccccc12)NC(=O)[C@H](Cc1c[nH]cn1)NC(=O)[C@H](CO)NC(=O)[C@H](Cc1c[nH]c2ccccc12)NC(=O)[C@H](Cc1c[nH]cn1)NC(=O)[C@@H]1CCC(=O)N1)C(=O)N[C@@H](CCCNC(=N)N)C(=O)N1CCC[C@H]1C(=O)NCC(N)=O` [Compound 68, pGlu-His-Trp-Ser-His-D-Trp-Leu-Arg-Pro-Gly-amide] ([pGlu]HWSH[dW]LRPG-NH2), the activation at 1 µM on GnRHR came out at 86%. For the same compound, in data set [1], the half-life at 0.2 mg/ml is above 96. Besides, in data set [2], the Solubility grading is reported as 1.

In the case of `CCNC(=O)[C@@H]1CCCN1C(=O)[C@H](CCCNC(=N)N)NC(=O)[C@H](CC(C)C)NC(=O)[C@@H](Cc1cn(Cc2ccccc2)cn1)NC(=O)[C@H](Cc1ccc(O)cc1)NC(=O)[C@H](CO)NC(=O)[C@H](Cc1c[nH]c2ccccc12)NC(=O)[C@H](Cc1cnc[nH]1)NC(=O)[C@@H]1CCC(=O)N1` [Histrelin TFA], the Solubility grading in data set [3] stood at 2.

In data set [3], `CCNC(=O)[C@@H]1CCCN1C(=O)[C@H](CCCNC(=N)N)NC(=O)[C@H](CC(C)C)NC(=O)[C@@H](Cc1cn(Cc2ccccc2)cn1)NC(=O)[C@H](Cc1ccc(O)cc1)NC(=O)[C@H](CO)NC(=O)[C@H](Cc1c[nH]c2ccccc12)NC(=O)[C@H](Cc1cnc[nH]1)NC(=O)[C@@H]1CCC(=O)N1` [Histrelin acetate] displayed a Solubility grading of 4.

The values above are taken from patent publication US11434258B2, “Compounds (immunorhelins)” (ISR IMMUNE SYSTEM REGULATION HOLDING AB (PUBL), priority 2017, dated 2022).
